Source: patent US10028929B2, “Method of treating raynaud's disease secondary to connectivitis using aminaphtone” (LABORATORI BALDACCI S.P.A., priority 2006, dated 2018)

Tests used:
Format in all cases: cell-based, human
[1] = system: Pre-Pro-ET-1 (PPET-1) gene; assay: Real-Time RT-PCR specific for Pre-Pro-ET-1 (PPET-1) in ECV 304 cells; settings: ECV304 cells with or without IL-1β 100 U/ml, aminaphtone 2; 4; 6, 6-12-24-36 hrs
Procedure: (§1) Cell lines ECV 304: they are cells coming from umbilical cord of a new-born and spontaneously immortalized at the 136th step (distributed from Collection of Cell Cultures). Such cells were cultured in a complete medium consisted of: Medium 199, L-glutamine 1%, penicillin/streptomycin 10 (Invitrogen) with an addition of 10% FCS (fetal calf serum) (Hy-clone).
b) Real-Time RT-PCR specific for Pre-Pro-ET-1 (PPET-1). The expression of PPET-1 gene was detected at 6-12-24-36 hrs, respectively, in samples: treated with IL-1β (100 U/ml); treated with IL-1β (100 U/ml) additioned with aminaphtone (2; 4; […]); non-stimulated by IL-1β but treated with aminaphtone alone. RT-PCR technique based on TaqMan technology was used (Applied Biosystems, Foster City, Calif.), through a sequence determination system ABI PRISM 7000 (Applied Biosystems). 2-4 μl were collected form each cDNA, diluted 1:5, in a final volume of 25 μl. […] The quantification of the specific mRNA PPET-1 was normalized for the constitutive gene expression glyceraldehyde-3-phosphate-dehydro-genase (GAPDH). Relative quantifications of the gene expression were made possible by the use of the comparative method CT (ΔΔCT). The CT value was defined as the number of PCR cycles required for overcome the fluorescence signal (defined as 10-fold the standard deviation of the basal variation). […]

endothelin-1 (ET-1) = assay: Endothelin-1 production from ECV 304 cells, EIA-kit on supernatants; settings: aminaphtone 2, 4, 6 mcg/ml, dose-dependent
Procedure: as §1
a) EIA-kit—Supernatants of cell samples ECV304 were collected, cultured as above, treated with IL-1β at 100 U/ml over 6-12-24 and 36 hrs or with IL-1β at 100 U/ml additioned with aminaphtone at the concentration of 2; 4; 6 μg/ml, respectively. Moreover, samples non-stimulated with IL-1β were incubated with the addition of aminaphtone alone at 2; 4; 6 μg/ml.
The concentration of ET-1 existing in the supernatants was quantified through Endothelin-1 EIA-Kit (CAYMAN Chemical) in an interval between 0 and 250 pg/ml. This immunometric test is based on the “sandwich” technique with a double antibody.

[2] = system: E-selectine adhesive molecule CD62 (ELAM-1); assay: Cytofluorometric quantitative analysis of E-selectine (ELAM-1) expression in ECV 304 cells; settings: 48 hr
Procedure: as §1
Cytofluorometric quantitative analysis of aminaphtone effects on the E-selectine adhesive molecule expression CD62 (ELAM-1).
Cells of the ECV304 line, cultured in 28 cm^2 Petri dishes, were stimulated with IL-1β at 100 U/ml (Roche) over 48 hrs in a complete medium and complete medium additioned with aminaphtone at the concentration of 2; 4; 5 μg/ml, respectively. Such concentrations are equivalent to concentrations reached “in vivo” through administration of Capillarema per os at the standard dosage of 3 capsules/day (capsules with 75 mg of active substance per day). Furthermore, cells untreated with IL-1β were incubated in a complete medium additioned with aminaphtone alone at the concentration of 4 μg/ml.
Samples, after washing with PBS, were removed from the culture plates through a treatment with trypsin-EDTA. Adhesive molecules expression was detected through incubation over 20 min. with 7 μl/10^6 of human monoclonal antibody CD62-E-PECy5 (ELAM-1) (Becton-Dickinson). The binding specificity was ensured by the addition of the control […]. After washing and re-suspension in the fixing solution (1% paraformaldehyde, PFA in PBS), samples were analyzed in a flow cytometry with FACSdiva Software (Becton-Dickinson). Data were expressed as mean channel fluorescence and as fluorescence percentage of positive cells. All experiments were repeated 5 times on independent cell samples coming from different experimental sessions. Evaluation of endothelin production (ET-1).

Cc1cc(OC(=O)c2ccc(N)cc2)c2ccccc2c1O [aminaphtone, 2-hydroxy-3-methyl-1,4-naphthohydroquinone-2-p-aminobenzoate]
gene transcription of PRE-PRO-ET-1 [1]: trend, already observed at a level of gene transcription of PRE-PRO-ET-1
ET-1 production (EIA-kit) (endothelin-1 (ET-1); ECV304 cells non-activated, culture medium alone, significant at 12 h (6 mcg/ml), 24 h and 36 h (4, 6 mcg/ml)): tends to reduce the ET-1 production
ET-1 production (EIA-kit) (endothelin-1 (ET-1); ECV304 cells stimulated with IL-1β 100 U/ml, 6-12-24-36 hrs, significant at 6 h (4, 6 mcg/ml), 12 h (4, 6 mcg/ml), 36 h (6 mcg/ml)): tends to reduce the ET-1 production
ELAM-1 % positive cells ([2]; ECV304 cells + IL-1β 100 U/ml, aminaphtone 2 mcg/ml, IL-1β alone 38.4±3.7, p=n.s.): 36.6±4.5%
ELAM-1 membrane fluorescence, mean channel (MC), mean±standard deviation ([2]; ECV304 cells + IL-1β 100 U/ml, aminaphtone 2 mcg/ml, IL-1β alone 369.6±30.5, p<0.001): 332.2±36.8
ELAM-1 % positive cells ([2]; ECV304 cells + IL-1β 100 U/ml, aminaphtone 4 mcg/ml, IL-1β alone 38.4±3.7, p<0.001): 28.2±2.9%
ELAM-1 membrane fluorescence, mean channel (MC), mean±standard deviation ([2]; ECV304 cells + IL-1β 100 U/ml, aminaphtone 4 mcg/ml, IL-1β alone 369.6±30.5, p<0.001): 278.4±16.2
ELAM-1 % positive cells ([2]; ECV304 cells + IL-1β 100 U/ml, aminaphtone 5 mcg/ml, IL-1β alone 38.4±3.7, p<0.001): 27.2±3.7%
ELAM-1 membrane fluorescence, mean channel (MC), mean±standard deviation ([2]; ECV304 cells + IL-1β 100 U/ml, aminaphtone 5 mcg/ml, IL-1β alone 369.6±30.5, p<0.001): 252.6±10.3
ELAM-1 % positive cells ([2]; ECV304 cells not activated with IL-1β, aminaphtone 4 mcg/ml, medium alone 29.1±3.1, p<0.05): 19.4±1.7%
ELAM-1 membrane fluorescence, mean channel (MC), mean±standard deviation ([2]; ECV304 cells not activated with IL-1β, aminaphtone 4 mcg/ml, medium alone 250±22, p<0.05): 219±8.3
